Experimental findings from ChEMBL document CHEMBL1157037, “Synthesis and in vitro antiproliferative activities of quinoline derivatives” (Eur J Med Chem, 2010) are described below.

Where only a bound is given, the exact number is not on record here.

Common to all, as to type: functional, cell-based
Assay [1] is described as follows: Antiproliferative activity against human fibroblast cells after 48 hrs by resazurin reduction assay. For orientation: The colour change of resazurin is a common sign of viable cells or microbes.
For a further assay, the system named is PA-1. Put plainly: Antiproliferative activity against human PA1 cells after 48 hrs by resazurin reduction assay. To be noted: PA-1, 48 h.
In a further assay the test system is MCF7. Put plainly: Antiproliferative activity against human MCF7 cells after 48 hrs by resazurin reduction assay. To be noted: MCF7, 48 h.

Take `CCOc1ccc2ccc(-c3cc4ccc(-c5cc6ccccc6nc5OCC)cc4nc3OCC)cc2n1`: the IC50 (as a rule, the concentration that gives 50% inhibition) in assay [1] was more than 100 µM; with PA-1, 50 µM; in the assay on MCF7, more than 100 µM.

As to `CCOc1ccc2ccc(-c3cc4ccccc4nc3OCC)cc2n1`, the IC50 in assay [1] was 37 µM; in the assay with PA-1 it was 37 µM; with MCF7, more than 100 µM.

Turning to `COc1ccc2ccc(-c3cc4ccccc4nc3OC)cc2n1`, the IC50 in assay [1] is 54 µM; with PA-1, 36 µM; in the assay with MCF7, more than 100 µM.
